Source: patent US7872036B2, “3-triazolylphenyl sulfide derivative and insecticide, miticide and nematicide containing it as an active ingredient” (Kumiai Chemical Industry Co., Ltd., priority 2004, dated 2011)

Experiments:
[1] = system: southern root-knot nematodes; test: Nemastatic test on southern root-knot nematodes; assay type: in vivo, Meloidogyne sp.; conditions: diluted solution 20 ppm mixed 1:1 with suspension of second stage larvae, 25° C., 5 days
Protocol: Compounds of the present invention (5 parts) and Tween 20 (tradename for polyoxyethylene sorbitan monolaurate) (1 part) as a spreader were dissolved n N,N-dimethylformamide (94 parts) to prepare 5% emulsifiable concentrates of the compounds of the present invention. Distilled water was added to the emulsifiable concentrates to prepare diluted solutions having a concentration of the compounds of the present invention of 20 ppm. 0.5 ml of the diluted solutions and 0.5 ml of water suspensions containing 100 second stage larvae of southern root-knot nematodes were mixed, and the mixture were placed in a thermostatic chamber at 25° C. for 5 days, and the survivors were counted for calculation of the nemastatic degree by using Equation 3. The test was carried out by two series system.

brown planthoppers = test: Insecticidal test on brown planthoppers; assay type: in vivo, Nilaparvata lugens; conditions: active ingredient 500 ppm, germinating rice immersed, 4th-instar larvae, 25° C., 6 days
Protocol: Wettable powders were prepared in accordance with Formulation Example 2 and diluted with water to an active ingredient concentration of 500 ppm. Germinating rice was immersed in the resulting solutions and put in a plastic cup with a capacity of 60 ml. Ten 4th-instar larvae of brown planthoppers were released to the cup, and the cup was covered and placed in a thermostatic chamber at 25° C. for 6 days, and the survivors were counted for calculation of the insecticidal degree by using Equation 1. The test was carried out by one series system.

| SMILES | Nemastatic degree (%) [1] [%] | Insecticidal degree (%) (brown planthoppers) |
| --- | --- | --- |
| Cc1cc(F)c(-n2nc(C(F)(F)C(F)(F)C(F)(F)F)nc2N)cc1[S+]([O-])CC(F)(F)F (racemic) [Compound 175] | 97 | – |
| Cc1cc(F)c(-n2nc(C(F)(F)F)nc2NC(=O)C(F)F)cc1[S+]([O-])CC(F)(F)F (racemic) [Compound 200] | – | 100 |
| Cc1cc(F)c(-n2nc(C(F)(F)F)nc2C(N)=O)cc1[S+]([O-])CC(F)(F)F (racemic) [Compound 208] | 100 | – |
| Cc1cc(F)c(-n2nc(C(F)(F)F)nc2N)cc1SCC1CC1 [Compound 3] | 100 | – |
| CSc1nc(N)n(-c2cc(SCC(F)(F)F)c(C)cc2F)n1 [Compound 15] | 100 | – |
| CCSc1nc(N)n(-c2cc(SCC(F)(F)F)c(C)cc2F)n1 [Compound 21] | 100 | – |
| CC[S+]([O-])c1nc(N)n(-c2cc([S+]([O-])CC(F)(F)F)c(C)cc2F)n1 (stereo not shown) [Compound 24] | – | 90 |
| CCS(=O)(=O)c1nc(N)n(-c2cc([S+]([O-])CC(F)(F)F)c(C)cc2F)n1 (stereo not shown) [Compound 26] | – | 90 |
| CCc1nc(N)n(-c2cc(SCC(F)(F)F)c(C)cc2F)n1 [Compound 49] | – | 100 |
| Cc1cc(F)c(-n2nc(C(F)(F)F)nc2NC(=O)N(C)C)cc1SCC(F)(F)F [Compound 83] | – | 10 |
| CNc1nc(C(F)(F)F)nn1-c1cc(SCC(F)(F)F)c(C)cc1Cl [Compound 97] | 97 | – |
| Cc1cc(F)c(-n2nc(C(C)(C)C#N)nc2N)cc1SCC(F)(F)F [Compound 103] | 94 | – |
| Cc1nc(N)n(-c2cc(SCC(F)(F)F)c(C)cc2F)n1 [Compound 105] | – | 90 |
| Cc1cc(F)c(-n2nc(C(C)C)nc2N)cc1SCC(F)(F)F [Compound 110] | 97 | – |
| CC(=O)Nc1nc(C(C)(C)C)nn1-c1cc(SCC(F)(F)F)c(C)cc1F [Compound 112] | – | 90 |
| CCc1nc(N)n(-c2cc(SCC(F)(F)F)c(C)cc2F)n1 [Compound 116] | 97 | – |

| SMILES | Nemastatic degree (%) [1] [%] | Insecticidal degree (%) (brown planthoppers) |
| --- | --- | --- |
| Nc1nc(C(F)(F)F)nn1-c1ccc(Cl)c(SCC(F)(F)F)c1 [Compound 126] | 94 | – |
| CCN(CC)c1nc(C(F)(F)F)nn1-c1cc(SCC(F)(F)F)c(C)cc1F [Compound 128] | – | 100 |
| Cc1cc(F)c(-n2nc(SCC(F)(F)F)nc2N)cc1SCC(F)(F)F [Compound 130] | 100 | – |
| CCC[S+]([O-])c1nc(N)n(-c2cc([S+]([O-])CC(F)(F)F)c(C)cc2F)n1 (stereo not shown) [Compound 137] | – | 100 |
| Cc1cc(F)c(-n2nc(SCC#N)nc2N)cc1SCC(F)(F)F [Compound 140] | 99 | – |
| CNc1nc(C(F)(F)F)nn1-c1cc(SCC(F)(F)F)c(C)cc1C [Compound 146] | 98 | – |
| C#CC[S+]([O-])c1nc(N)n(-c2cc(SCC(F)(F)F)c(C)cc2F)n1 (stereo not shown) [Compound 150] | – | 100 |
| CC(=O)N(C)c1nc(SCC(F)(F)F)nn1-c1cc(SCC(F)(F)F)c(C)cc1F [Compound 158] | – | 90 |
| Cc1cc(F)c(-n2nc(C(F)(F)F)nc2NN)cc1[S+]([O-])CC(F)(F)F (stereo not shown) [Compound 163] | – | 100 |
| Cc1cc(F)c(-n2nc(C(F)(F)F)nc2NCC#N)cc1[S+]([O-])CC(F)(F)F (stereo not shown) [Compound 165] | – | 100 |
| Cc1cc(F)c(-n2nc(C(C(F)(F)F)C(F)(F)F)nc2N)cc1SCC(F)(F)F [Compound 182] | 91 | – |
| C#CCNc1nc(SCC(F)(F)F)nn1-c1cc(SCC(F)(F)F)c(C)cc1F [Compound 184] | – | 100 |
| CCC(=O)Nc1nc(C(F)(F)F)nn1-c1cc(SCC(F)(F)F)c(C)cc1F [Compound 186] | – | 100 |
| Cc1cc(F)c(-n2nc(C(F)(F)F)nc2NC(=O)CCl)cc1SCC(F)(F)F [Compound 189] | – | 100 |
| Cc1cc(F)c(-n2nc(C(F)(F)F)nc2NC(=O)NC(C)C)cc1SCC(F)(F)F [Compound 201] | – | 100 |
